Reference: US20110105541A1, “ALKYL SUBSTITUTED ARYLINDENOPYRIMIDINES AND THEIR USE AS HIGHLY SELECTIVE ADENOSINE A2a RECEPTOR ANTAGONISTS” (priority 2009, published 2011)
pIC50: −log10 of the molar value.

Experiments:
[1] = target: T1, human adenosine A2A receptor (Homo sapiens, UniProt P29274); experiment: Adenosine A2A receptor functional assay (A2AGAL2), cAMP inducible beta-galactosidase reporter, NECA challenge; assay type: cell-based; details: for pIC50: CHO-K1 cells overexpressing human A2A receptor, antagonist curve against 15 nM NECA; for A1/A2A: ratio of A1Gal2 to A2AGal2 values (selectivity for A2A over A1)
T1 construct: expressed in transfected cells; host or cells: CHO-K1
Protocol: Adenosine A2 Receptor Functional Assay (A2AGAL2)
To initiate the functional assay, cryopreserved CHO—K1 cells overexpressing the human adenosine A2A receptor and containing a cAMP inducible beta-galactosidase reporter gene were thawed, centrifuged, DMSO containing media removed, and then seeded with fresh culture media into clear 384-well tissue culture treated plates (BD #353961) at a concentration of 10K cells/well. Prior to assay, these plates were cultured for two days at 37° C., 5% CO2, 90% Rh. On the day of the functional assay, culture media was removed and replaced with 45 μL assay medium (Hams/F-12 Modified (Mediatech # 10-080CV) supplemented w/0.1% BSA). Test compounds were diluted and 11 point curves created at a 1000× concentration in 100% DMSO. Immediately after addition of assay media to the cell plates, […] of the appropriate test compound antagonist or agonist control curves were added to cell plates using a Cartesian Hummingbird. Compound curves were allowed to incubate at room temperature on cell plates for approximately 15 minutes before addition of a 15 nM NECA (Sigma E2387) agonist challenge (5 μL volume). A control curve of NECA, a DMSO/Media control, and a single dose of Forskolin (Sigma F3917) were also included on each plate. After additions, cell plates were allowed to incubate at 37° C., 5% CO2, 90% Rh for 5.5-6 hours. After incubation, media were removed, and cell plates were washed 1×50 μL with DPBS w/o Ca & Mg (Mediatech 21-031-CV). Into dry wells, 20 μL of 1× Reporter Lysis Buffer (Promega E3971 (diluted in dH2O from 5× stock)) was added to each well and plates frozen at −20° C. overnight. For β-galactosidase enzyme colorimetric assay, plates were thawed out at room temperature and 20 μL 2× assay buffer (Promega) was added to each well. Color was allowed to develop at 37° C., 5% CO2, 90% Rh for 1-1.5 h or until reasonable signal appeared. The colorimetric reaction was stopped with the addition of 60 μL/well 1M sodium carbonate. Plates were counted at 405 nm on a SpectraMax Microplate Reader (Molecular Devices). Data was analyzed in Microsoft Excel and IC/EC50 curves were fit using a standardized macro.

[2] = target: T2, human adenosine A1 receptor (Homo sapiens, UniProt P30542); experiment: Adenosine A1 receptor functional assay (A1GAL2), cAMP inducible beta-galactosidase reporter, r-PIA/Forskolin challenge; assay type: cell-based; details: CHO-K1 cells overexpressing human A1 receptor; antagonist curve against 4 nM r-PIA/1 uM Forskolin
T2 construct: expressed in transfected cells; host or cells: CHO-K1
T2 sequence (P30542 1-326): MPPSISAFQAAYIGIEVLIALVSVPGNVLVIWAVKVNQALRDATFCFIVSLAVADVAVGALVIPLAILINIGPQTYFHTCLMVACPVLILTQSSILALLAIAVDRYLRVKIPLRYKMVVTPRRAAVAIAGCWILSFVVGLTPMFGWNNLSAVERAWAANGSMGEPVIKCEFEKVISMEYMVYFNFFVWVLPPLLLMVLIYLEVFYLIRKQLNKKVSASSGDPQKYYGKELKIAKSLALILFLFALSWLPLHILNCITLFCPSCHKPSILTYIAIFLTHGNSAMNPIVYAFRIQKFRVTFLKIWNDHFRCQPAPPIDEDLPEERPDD
Protocol: Adenosine A1 Receptor Functional Assay (A1GAL2)
To initiate the functional assay, cryopreserved CHO—K^1 cells overexpressing the human adenosine A1 receptor and containing a cAMP inducible beta-galactosidase reporter gene were thawed, centrifuged, DMSO containing media removed, and then seeded with fresh culture media into clear 384-well tissue culture treated plates (BD #353961) at a concentration of 10K cells/well. Prior to assay, these plates were cultured for two days at 37° C., 5% CO2, 90% Rh. On the day of the functional assay, culture media was removed and replaced with 45 μL assay medium (Hams/F-12 Modified (Mediatech # 10-080CV) supplemented w/0.1% BSA). Test compounds were diluted and 11 point curves created at a 1000× concentration in 100% DMSO. Immediately after addition of assay media to the cell plates, […] of the appropriate test compound antagonist or agonist control curves were added to cell plates using a Cartesian Hummingbird. Compound curves were allowed to incubate at room temperature on cell plates for approximately 15 minutes before addition of a 4 nM r-PIA (Sigma P4532)/1 uM Forskolin (Sigma F3917) agonist challenge (5 μL volume). A control curve of r-PIA in 1 uM Forskolin, a DMSO/Media control, and a single dose of Forskolin were also included on each plate. After additions, cell plates were allowed to incubate at 37° C., 5% CO2, 90% Rh for 5.5-6 hours. After incubation, media was removed, and cell plates were washed 1×50 μL with DPBS w/o Ca & Mg (Mediatech 21-031-CV). Into dry wells, 20 μL of 1× Reporter Lysis Buffer (Promega E3971 (diluted in dH2O from 5× stock)) was added to each well and plates frozen at −20° C. overnight. For β-galactosidase enzyme colorimetric assay, plates were thawed out at room temperature and 20 μL 2× assay buffer (Promega) was added to each well. Color was allowed to develop at 37° C., 5% CO2, 90% Rh for 1-1.5 h or until reasonable signal appeared. […] Plates were counted at 405 nm on a SpectraMax Microplate Reader (Molecular Devices). Data was analyzed in Microsoft Excel and IC/EC50 curves were fit using a standardized macro.

T1 sequence (P29274 whole entry): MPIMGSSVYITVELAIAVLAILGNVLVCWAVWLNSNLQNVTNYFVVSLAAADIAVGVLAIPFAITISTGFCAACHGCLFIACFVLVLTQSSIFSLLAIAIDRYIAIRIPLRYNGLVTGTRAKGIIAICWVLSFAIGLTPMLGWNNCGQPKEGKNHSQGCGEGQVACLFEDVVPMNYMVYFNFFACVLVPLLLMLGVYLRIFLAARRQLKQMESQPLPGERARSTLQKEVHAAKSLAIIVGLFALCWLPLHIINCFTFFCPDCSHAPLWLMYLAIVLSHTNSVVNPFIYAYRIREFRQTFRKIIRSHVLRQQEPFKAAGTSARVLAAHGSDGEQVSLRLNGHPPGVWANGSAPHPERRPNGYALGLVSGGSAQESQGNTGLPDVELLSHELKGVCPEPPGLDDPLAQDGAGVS

pIC50 [1] | A1/A2A [1] | pIC50 [2] | SMILES
7.93 | 276.249 | 5.48 | Cc1nc(C)c(Cc2cccc3c2-c2nc(N)nc(-c4ccc(F)cc4)c2C3=O)s1 [Example 1, 2-Amino-9-(2,4-dimethyl-thiazol-5-ylmethyl)-4-(4-fluoro-phenyl)-indeno[1,2-d]pyrimidin-5-one]
9.12 | 195.975 | 6.83 | Nc1nc(-c2ccc(F)cc2)c2c(n1)-c1c(Cc3cn[nH]c3)cccc1C2=O [Example 2, 2-Amino-4-(4-fluoro-phenyl)-9-(1H-pyrazol-4-ylmethyl)-indeno[1,2-d]pyrimidin-5-one]
7.38 | 64.5654 | 5.57 | Cc1noc(C)c1Cc1cccc2c1-c1nc(N)nc(-c3ccc(F)cc3)c1C2=O [Example 3, 2-Amino-9-(3,5-dimethyl-isoxazol-4-ylmethyl)-4-(4-fluoro-phenyl)-indeno[1,2-d]pyrimidin-5-one]
